# Source: the NIST ThermoML archive (doi:10.1021/je030132i)
# Numbers after ± are expanded uncertainties.
# Columns and labels:
# [1] = 101.3 kPa, Liquid; for viscosity: Capillary tube (Ostwald / Ubbelohde) method; for mass density: Vibrating tube method
# [2] = xn = mol fraction of the nth substance listed; settings: 101.3 kPa, Liquid, x2 = 0; for viscosity: Capillary tube (Ostwald / Ubbelohde) method; for mass density: Vibrating tube method
SMILES,viscosity ([1]; 318.65 K) [mPa·s],mass density ([1]; 318.65 K) [kg/m3],viscosity ([1]; 323.15 K) [mPa·s],mass density ([1]; 323.15 K) [kg/m3],viscosity ([1]; 333.15 K) [mPa·s],mass density ([1]; 333.15 K) [kg/m3],viscosity ([1]; 343.15 K) [mPa·s],mass density ([1]; 343.15 K) [kg/m3],viscosity ([1]; 298.15 K) [mPa·s],viscosity ([1]; 313.15 K) [mPa·s],viscosity ([2]; 298.15 K) [mPa·s],viscosity ([2]; 313.15 K) [mPa·s],viscosity ([2]; 318.65 K) [mPa·s],viscosity ([2]; 323.15 K) [mPa·s],mass density ([2]; 323.15 K) [kg/m3],viscosity ([2]; 333.15 K) [mPa·s],mass density ([2]; 333.15 K) [kg/m3],viscosity ([2]; 343.15 K) [mPa·s],mass density ([2]; 343.15 K) [kg/m3]
CC(O)CNCC(C)O (stereo unspecified) [N-(2-hydroxypropyl)-2-hydroxy-1-propanamine],186.6 ± 4.6,988.22 ± 1,125.7 ± 2.3,984.9 ± 1,57.99 ± 0.62,977.3 ± 1,29.55 ± 0.33,969.58 ± 0.99,–,–,–,–,–,–,–,–,–,–,–
O [water],0.595 ± 0.004,–,0.547 ± 0.004,988.04 ± 0.08,0.466 ± 0.003,983.12 ± 0.08,0.405 ± 0.003,977.77 ± 0.08,0.89 ± 0.006,0.653 ± 0.004,–,–,–,–,–,–,–,–,–
O [water] + CC(O)CNCC(C)O,–,–,–,–,–,–,–,–,–,–,0.89 ± 0.006,0.653 ± 0.004,0.595 ± 0.004,0.547 ± 0.004,988.04 ± 0.08,0.466 ± 0.003,983.12 ± 0.08,0.405 ± 0.003,977.77 ± 0.08
